Source: patent US6967205B1, “Compounds with antibacterial and antiparasitic properties” (New Pharma Research Sweden AB, priority 1999, dated 2005)
Values after ≈ are worked out from the molar mass of the structure shown. Values joined by “and” are separate entries in the source; they are usually repeats but may differ in a detail not shown here. Equal entries are not always repeated.

Key:
[1] = system: Eimeria acervulina, E. maxima, E. necatrix, E. tenella and E. brunetti; assay: Prophylactic anticoccidial activity in chickens of Habbared X breed (5 Eimeria strains); type: in vivo; details: drug in feed (JA 39, JA 42 100 ppm; Coxistac 60 ppm)
Procedure: The anticoccidial activity of the present compounds as prophylactic agents was evaluated in vivo on […] one day old (1 day after hatch) chickens of Habbared X breed. The chickens were divided into four groups of 20 birds each, and each group was located in a separate pen (1 m×1 m). The chickens were then fed with unmedicated food up to day 7 after hatch. Fresh water was supplied ad libitum .
On day 8 after hatch, the four groups were fed as follows (1 ppm=1 mg drug/kg feed): • Group #1: feed containing JA 39 (100 ppm); • Group #2: feed containing JA 42 (100 ppm); • Group #3: feed containing Coxistac (60 ppm), a known anticoccidial agent (see U.S. Pat. No. 3,857,948);
Group #4: feed containing no drug (control group).
The chickens were fed as above on day 8 and 9 after hatch. On day 10 after hatch, each chicken was infected orally by 6 000-7 000 oocysts containing a mixture of 5 mature sporulated strains, namely Eimeria acervulina, E. maxima, E. necatrix, E. tenella and E. brunetti. The groups #1-3 received drug as above from day 10 to 21 after hatch.
From day 14 to 21 after hatch, fresh fecal droplets were collected and examined daily. The average number of oocysts/g faeces was then calculated in accordance with the so-called Mc-Master technique (Soulsby, E. J., Helminths, Arthropods & Protozoa of domesticated animals, p. 789, 6th Ed., Williams & Wilkins Co. Baltimore (USA), Tindall & Cassell Ltd., London, 1968). The final weight of and mean total amount of feed consumed by each bird were also examined, and the results are summarized in Table 8 hereinbelow.

M. gallisepticum = assay: M.I.C. against Mycoplasma in microtitre plates (Tanner and Wu); type: cell-based; details: in vitro; for MIC: Mycoplasmoides gallisepticum
Procedure: The M.I.C. values of the compounds JA 1, JA 3, JA 5, JA 12, JA 42 and JA 43 were determined in vitro against M. gallisepticum. Enrofloxacin, tylosin and oxytetracyclin were used as reference compounds. The tested compounds were all stored and applied as solutions in distilled water. The M.I.C. evaluation was performed in microtitre plates, and the methodology employed was basically that of Tanner and Wu (Avian Disease, 36:714-717 (1992)).

[2] = system: Micrococcus Luteus (ATCC 9341); assay: M.I.C. by broth dilution method (NCCLS 1988), gram-positive bacteria; type: cell-based; details: ATCC9341, in vitro broth dilution, read-out: M.I.C. values Microc. Luteus
Procedure: (§1) The antibacterial activity of the present compounds was investigated by in vitro evaluation of their M.I.C. (Minimum Inhibitory Concentration) values. The evaluation was conducted in complete accordance with the “Broth dilution method”, as outlined by the U.S. National Committee for Clinical Laboratory Standards “NCCLS 1988”.
(§2) Solutions of the present compounds were prepared by dissolving 0.01 g of a test compound in either 10% KOH (aq) or a 10% KOH/DMF mixture, after which sterile, distilled H2O was added up to a total volume of 10 ml, thereby yielding a test compound concentration of 1 000 μg/ml.
(§3) In this evaluation, the antibacterial activity of the present compounds and enrofloxacin as reference compound was tested against seven strains of gram-positive bacteria, namely Bacillus subtilus (ATCC 6633), Bacillus cereus, Streptococcus faecium, Micrococcus Luteus (ATCC 9341), Staph. aureus (ATCC 29737), Staph. epidermidis (ATCC 12228) and Staphylococcus (ATCC 6538).

[3] = system: Bacillus subtilus (ATCC 6633); assay: as above; type: cell-based; details: ATCC6633, in vitro broth dilution
Procedure: as §1, §2, §3

Bacillus cereus = assay: as above; type: cell-based; details: in vitro broth dilution
Procedure: as §1, §2, §3

[4] = system: Staph. epidermidis (ATCC 12228); assay: as above; type: cell-based; details: Staphylococcus epidermidis, ATCC12228, in vitro broth dilution
Procedure: as §1, §2, §3

Streptococcus faecium = assay: as above; type: cell-based; details: Enterococcus faecium, in vitro broth dilution, read-out: M.I.C. values Streptoc. faecium
Procedure: as §1, §2, §3

[5] = system: Staph. aureus (ATCC 29737); assay: as above; type: cell-based; details: Staphylococcus aureus, ATCC29737, in vitro broth dilution
Procedure: as §1, §2, §3

[6] = system: Staphylococcus (ATCC 6538); assay: as above; type: cell-based; details: ATCC6538, in vitro broth dilution, read-out: M.I.C. values Staph. (ATCC 6538)
Procedure: as §1, §2, §3

T. evansi = assay: Antitrypanosomal activity in vivo in white albino rats (Giemsa blood smears); details: individual animals
Procedure: The antitrypanosomal activity of the present compounds was evaluated in vivo on 40 white albino rats. The rats were divided into 4 groups of 10 rats each. The rats were then inoculated intraperitoneally with 10^3 organisms of T. evansi (isolated from blood of naturally infected camels) in accordance with known methodology (see Kolmer, J. A., J. Infect. Dis., 17:78-95 (1915)). The progress of the infection was monitored with the aid of standard Giemsa procedure (see Cruickshank, R., Handbook of Bacteriology, E and S Livingstone Ltd., Edinborough and London, 1961), whereby peripheral blood samples from the rats were examined under microscope. The number of Trypanosoma organisms in every blood sample was calculated and classified as follows (the numbers below are given for fields examined on a microscope slide): • +++=>10 organisms • ++=5-10 organisms • +=1-4 organisms • 0=no organisms detected
On day 1 post infection, each group of rats was subcutaneously injected with a single dose of tested compound in an amount of 50.0 mg/kg body weight. The following drugs were administered:
Group #4: saline solution (control group)

[7] = day 1 post infection (day of dosing), single s.c. dose 50.0 mg/kg
[8] = day 3 post infection, single s.c. dose 50.0 mg/kg on day 1, 50 mg/kg
[9] = day 5 post infection, single s.c. dose 50.0 mg/kg on day 1, 50 mg/kg
[10] = day 7 post infection, single s.c. dose 50.0 mg/kg on day 1, 50 mg/kg
[11] = day 9 post infection, single s.c. dose 50.0 mg/kg on day 1, 50 mg/kg
[12] = day 11 post infection, single s.c. dose 50.0 mg/kg on day 1, 50 mg/kg
[13] = day 13 post infection, single s.c. dose 50.0 mg/kg on day 1, 50 mg/kg

MIC (M. gallisepticum; microtitre plates)	SMILES	MIC [2]	MIC [3]	MIC (Bacillus cereus)	MIC [4]	MIC (Streptococcus faecium)	MIC [5]	MIC [6]	Number of T. evansi per examined field (T. evansi; [7])	Number of T. evansi per examined field (T. evansi; [8])	Number of T. evansi per examined field (T. evansi; [11])	Number of T. evansi per examined field (T. evansi; [12])	further results
–	CC[C@@H](C(=O)[C@@H](C)[C@@H](O)[C@H](C)[C@@H]1O[C@@H]([C@@H](CC)C(=O)O)CC[C@@H]1C)[C@H]1O[C@]2(C=C[C@@H](O)[C@]3(CC[C@@](C)([C@H]4CC[C@](O)(CC)[C@H](C)O4)O3)O2)[C@H](C)C[C@@H]1C [Coxistac, reference compound]	–	–	–	–	–	–	–	–	–	–	–	Average number of Eimeria spp. oocysts/g faeces, day after hatch 14 ([1]; day 14 after hatch, infected day 10): 0.0 oocysts/g faeces; Average number of Eimeria spp. oocysts/g faeces, day after hatch 15 ([1]; day 15 after hatch, infected day 10): 3000 oocysts/g faeces; Average number of Eimeria spp. oocysts/g faeces, day after hatch 16 ([1]; day 16 after hatch, infected day 10): 4000 oocysts/g faeces; Average number of Eimeria spp. oocysts/g faeces, day after hatch 17 ([1]; day 17 after hatch, infected day 10): 7000 oocysts/g faeces; Average number of Eimeria spp. oocysts/g faeces, day after hatch 18 ([1]; day 18 after hatch, infected day 10): 2000 oocysts/g faeces; Average number of Eimeria spp. oocysts/g faeces, day after hatch 19 ([1]; day 19 after hatch, infected day 10): 2000 oocysts/g faeces; Average number of Eimeria spp. oocysts/g faeces, day after hatch 21 ([1]; day 21 after hatch, infected day 10): 0.0 oocysts/g faeces; Mean body weight ([1]; final weight, infected chickens): 62.0 g; Mean amount of feed consumed ([1]; mean total feed per bird, infected chickens): 120 g; Average number of Eimeria spp. oocysts/g faeces, Total ([1]; total of days 14-21 after hatch): 18000 oocysts/g faeces
0.06 µg/mL (≈ 0.167 µM)	CCN1CCN(c2cc3c(cc2F)c(=O)c(C(=O)O)cn3C2CC2)CC1 [Enrofloxacin, enrofloxacin, reference compound]	2 µg/mL (≈ 5.56 µM)	0.5 µg/mL (≈ 1.39 µM)	0.25 µg/mL (≈ 0.696 µM)	0.12 µg/mL (≈ 0.334 µM)	1 µg/mL (≈ 2.78 µM)	0.25 µg/mL (≈ 0.696 µM)	0.12 µg/mL (≈ 0.334 µM)	–	–	–	–	–
0.03 µg/mL (≈ 0.0636 µM)	O=C(O)c1cn(C2CC2)c2cc(N3CCN(S(=O)(=O)c4ccccc4)CC3)c(F)cc2c1=O [JA 1, 1-cyclopropyl-6-fluoro-4-oxo-7-[4-(phenylsulfonyl)-1-piperazinyl]-1,4-dihydro-3-quinolinecarboxylic acid]	0.5 µg/mL (≈ 1.06 µM)	0.06 µg/mL (≈ 0.127 µM)	0.06 µg/mL (≈ 0.127 µM)	0.06 µg/mL (≈ 0.127 µM)	0.5 µg/mL (≈ 1.06 µM)	0.12 µg/mL (≈ 0.255 µM)	0.06 µg/mL (≈ 0.127 µM)	–	–	–	–	antibacterial activity against M. gallisepticum (in words) (M. gallisepticum): high antibacterial activity
–	O=C(O)c1cn(C2CC2)c2cc(NCc3ccncc3)c(F)cc2c1=O [JA 68, 1-cyclopropyl-6-fluoro-4-oxo-7-[(4-pyridinylmethyl)amino]-1,4-dihydro-3-quinolinecarboxylic acid]	2 µg/mL (≈ 5.66 µM)	0.12 µg/mL (≈ 0.34 µM)	0.06 µg/mL (≈ 0.17 µM)	0.25 µg/mL (≈ 0.708 µM)	1 µg/mL (≈ 2.83 µM)	0.12 µg/mL (≈ 0.34 µM)	0.12 µg/mL (≈ 0.34 µM)	+ (+=1-4 organisms)	++ (++=5-10 organisms) (9×) and 0 (0=no organisms detected)	0 (0=no organisms detected) (9×) and dead	0 (0=no organisms detected) (9×) and dead	Number of T. evansi per examined field (T. evansi; [9]): 0 (0=no organisms detected) (8×) and ++ (++=5-10 organisms) (2×); Number of T. evansi per examined field (T. evansi; [10]): +++ (+++=>10 organisms) and 0 (0=no organisms detected) (9×); Number of T. evansi per examined field (T. evansi; [13]): 0 (0=no organisms detected) (9×) and dead
–	CC(C)c1ccc(Nc2cc3c(cc2F)c(=O)c(C(=O)O)cn3C2CC2)cc1 [JA 74, 1-cyclopropyl-6-fluoro-7-(4-isopropylanilino)-4-oxo-1,4-dihydro-3-quinolinecarboxylic acid]	2 µg/mL (≈ 5.26 µM)	0.12 µg/mL (≈ 0.315 µM)	0.12 µg/mL (≈ 0.315 µM)	0.12 µg/mL (≈ 0.315 µM)	2 µg/mL (≈ 5.26 µM)	0.12 µg/mL (≈ 0.315 µM)	0.12 µg/mL (≈ 0.315 µM)	+ (+=1-4 organisms)	++ (++=5-10 organisms)	dead and 0 (0=no organisms detected) (9×)	dead and 0 (0=no organisms detected) (9×)	Number of T. evansi per examined field (T. evansi; [9]): +++ (+++=>10 organisms) and 0 (0=no organisms detected) (6×) and ++ (++=5-10 organisms) (2×) and + (+=1-4 organisms); Number of T. evansi per examined field (T. evansi; [10]): dead and 0 (0=no organisms detected) (9×); Number of T. evansi per examined field (T. evansi; [13]): dead and 0 (0=no organisms detected) (9×)
–	O=C(O)c1cn(C2CC2)c2cc(N3CCC(CNC(=S)Nc4ccccc4)CC3)c(F)cc2c1=O [JA 110, 7-(4-{[(anilinocarbothioyl)amino]methyl}-1-piperidinyl)-1-cyclopropyl-6-fluoro-4-oxo-1,4-dihydro-3-quinolinecarboxylic acid]	–	–	–	–	–	–	–	+ (+=1-4 organisms)	++ (++=5-10 organisms)	+ (+=1-4 organisms) and 0 (0=no organisms detected) (9×)	+ (+=1-4 organisms) and 0 (0=no organisms detected) (9×)	Number of T. evansi per examined field (T. evansi; day 5 post infection, single s.c. dose 50.0 mg/kg on day 1): ++ (++=5-10 organisms); Number of T. evansi per examined field (T. evansi; day 7 post infection, single s.c. dose 50.0 mg/kg on day 1): ++ (++=5-10 organisms); Number of T. evansi per examined field (T. evansi; day 13 post infection, single s.c. dose 50.0 mg/kg on day 1): 0 (0=no organisms detected)
–	CN(C)[C@@H]1C(=O)C(C(N)=O)=C(O)[C@@]2(O)C(=O)C3=C(O)c4c(O)cccc4[C@@](C)(O)[C@H]3[C@H](O)[C@@H]12 [Oxytetracyclin, oxytetracyclin, reference compound]	–	–	–	–	–	–	–	–	–	–	–	M.I.C. values against M. gallisepticum (M. gallisepticum; microtitre plates): 0.12
0.06 µg/mL (≈ 0.0655 µM)	CC[C@H]1OC(=O)C[C@@H](O)[C@H](C)[C@@H](O[C@@H]2O[C@H](C)[C@@H](O[C@H]3C[C@@](C)(O)[C@@H](O)[C@H](C)O3)[C@H](N(C)C)[C@H]2O)[C@@H](CC=O)C[C@@H](C)C(=O)/C=C/C(C)=C/[C@@H]1CO[C@@H]1O[C@H](C)[C@@H](O)[C@@H](OC)[C@H]1OC [Tylosin, tylosin, reference compound]	–	–	–	–	–	–	–	–	–	–	–	–
